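The compound was tested at five concentrations on cells cultured in 96-well plates, with a 48-hour exposure period. The concentration for 50% growth inhibition is given as GI50. At the TGI there is no net growth.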
How the values were obtained:
Assay in all cases: inhibition of tumour cell growth, NCI panel, 48 h
IGROV1 ovarian = system: IGROV1 ovarian
SF-539 CNS = system: SF-539 CNS
NCI-H460 lung = system: NCI-H460 lung
MOLT-4 leukemia = system: MOLT-4 leukemia
HL-60(TB) leukemia = system: HL-60(TB) leukemia
UO-31 renal = system: UO-31 renal
NCI/ADR-RES ovarian = system: NCI/ADR-RES ovarian
MDA-MB-435 = system: MDA-MB-435
ACHN renal = system: ACHN renal
UACC-257 melanoma = system: UACC-257 melanoma
RPMI-8226 leukemia = system: RPMI-8226 leukemia
HT29 colon = system: HT29 colon
SF-268 CNS = system: SF-268 CNS
CCRF-CEM leukemia = system: CCRF-CEM leukemia
MDA-MB-231 breast = system: MDA-MB-231 breast
NCI-H226 lung = system: NCI-H226 lung
LOX IMVI melanoma = system: LOX IMVI melanoma
HCC-2998 colon = system: HCC-2998 colon
K-562 leukemia = system: K-562 leukemia
COLO 205 colon = system: COLO 205 colon
PC-3 prostate = system: PC-3 prostate
MCF7 breast = system: MCF7 breast
CAKI-1 renal = system: CAKI-1 renal
UACC-62 melanoma = system: UACC-62 melanoma
OVCAR-8 ovarian = system: OVCAR-8 ovarian
SK-OV-3 ovarian = system: SK-OV-3 ovarian
786-0 renal = system: 786-0 renal
OVCAR-3 ovarian = system: OVCAR-3 ovarian
SK-MEL-2 melanoma = system: SK-MEL-2 melanoma
SK-MEL-5 melanoma = system: SK-MEL-5 melanoma
HCT-15 colon = system: HCT-15 colon
KM12 colon = system: KM12 colon
NCI-H522 lung = system: NCI-H522 lung
A549 NSCLC = system: A549 NSCLC
TK-10 renal = system: TK-10 renal
A498 renal = system: A498 renal
SNB-75 CNS = system: SNB-75 CNS
OVCAR-5 ovarian = system: OVCAR-5 ovarian
U251 CNS = system: U251 CNS
SNB-19 CNS = system: SNB-19 CNS
SR leukemia = system: SR leukemia
SW-620 colon = system: SW-620 colon
SK-MEL-28 melanoma = system: SK-MEL-28 melanoma
T-47D breast = system: T-47D breast
HOP-92 NSCLC = system: HOP-92 NSCLC
M14 melanoma = system: M14 melanoma
HS 578T breast = system: HS 578T breast
MALME-3M melanoma = system: MALME-3M melanoma
NCI-H23 lung = system: NCI-H23 lung
BT-549 breast = system: BT-549 breast
OVCAR-4 ovarian = system: OVCAR-4 ovarian
HCT-116 colon = system: HCT-116 colon
SN12C renal = system: SN12C renal
DU-145 prostate = system: DU-145 prostate
EKVX NSCLC = system: EKVX NSCLC

## O=S(=O)(c1ccc(N=C2NN=C(c3c[nH]c4ccccc34)CS2)cc1)N1CCOCC1
IGROV1 ovarian
  GI50: > 100 µM
  TGI: > 100 µM
SF-539 CNS
  GI50: 27.7 µM
  TGI: > 100 µM
NCI-H460 lung
  GI50: 5.04 µM
  TGI: > 100 µM
MOLT-4 leukemia
  GI50: 3.93 µM
  TGI: 40.9 µM
HL-60(TB) leukemia
  GI50: 2.25 µM
  TGI: > 100 µM
UO-31 renal
  GI50: 19.1 µM
  TGI: > 100 µM
NCI/ADR-RES ovarian
  GI50: 20.6 µM
  TGI: > 100 µM
MDA-MB-435
  GI50: 8.85 µM
  TGI: > 100 µM
ACHN renal
  GI50: 88.6 µM
  TGI: > 100 µM
UACC-257 melanoma
  GI50: 9.54 µM
  TGI: > 100 µM
RPMI-8226 leukemia
  GI50: 3.72 µM
  TGI: 76.9 µM
HT29 colon
  GI50: 4.48 µM
  TGI: > 100 µM
SF-268 CNS
  GI50: 73.7 µM
  TGI: > 100 µM
CCRF-CEM leukemia
  GI50: 4.69 µM
  TGI: 58.8 µM
MDA-MB-231 breast
  GI50: 45.3 µM
  TGI: > 100 µM
NCI-H226 lung
  GI50: 7.74 µM
  TGI: > 100 µM
LOX IMVI melanoma
  GI50: 11.2 µM
  TGI: > 100 µM
HCC-2998 colon
  GI50: 24.6 µM
  TGI: > 100 µM
K-562 leukemia
  GI50: 2.65 µM
  TGI: > 100 µM
COLO 205 colon
  GI50: 14.7 µM
  TGI: > 100 µM
PC-3 prostate
  GI50: 10.3 µM
  TGI: > 100 µM
MCF7 breast
  GI50: 4.31 µM
  TGI: > 100 µM
CAKI-1 renal
  GI50: 78.1 µM
  TGI: > 100 µM
UACC-62 melanoma
  GI50: 26.8 µM
  TGI: > 100 µM
OVCAR-8 ovarian
  GI50: 9.61 µM
  TGI: > 100 µM
SK-OV-3 ovarian
  GI50: > 100 µM
  TGI: > 100 µM
786-0 renal
  GI50: 2.55 µM
  TGI: 42.3 µM
OVCAR-3 ovarian
  GI50: 18.8 µM
  TGI: > 100 µM
SK-MEL-2 melanoma
  GI50: 6.22 µM
  TGI: > 100 µM
SK-MEL-5 melanoma
  GI50: 2.51 µM
  TGI: 16.4 µM
HCT-15 colon
  GI50: 8.06 µM
  TGI: > 100 µM
KM12 colon
  GI50: 7.13 µM
  TGI: > 100 µM
NCI-H522 lung
  GI50: > 100 µM
  TGI: > 100 µM
A549 NSCLC
  GI50: 8.68 µM
  TGI: > 100 µM
TK-10 renal
  GI50: 26.3 µM
  TGI: > 100 µM
A498 renal
  GI50: 15.7 µM
  TGI: > 100 µM
SNB-75 CNS
  GI50: 21.6 µM
  TGI: > 100 µM
OVCAR-5 ovarian
  GI50: 49.1 µM
  TGI: > 100 µM
U251 CNS
  GI50: 8.48 µM
  TGI: > 100 µM
SNB-19 CNS
  GI50: 45.6 µM
  TGI: > 100 µM
SR leukemia
  GI50: 4.81 µM
  TGI: > 100 µM
SW-620 colon
  GI50: 77.2 µM
  TGI: > 100 µM
SK-MEL-28 melanoma
  GI50: 37.7 µM
  TGI: > 100 µM
T-47D breast
  GI50: 3.56 µM
  TGI: 78.6 µM
HOP-92 NSCLC
  GI50: 3.7 µM
  TGI: > 100 µM
M14 melanoma
  TGI: > 100 µM
HS 578T breast
  GI50: 31.4 µM
  TGI: > 100 µM
MALME-3M melanoma
  GI50: 34.8 µM
  TGI: > 100 µM
NCI-H23 lung
  GI50: 18.3 µM
  TGI: > 100 µM
BT-549 breast
  GI50: 2.86 µM
  TGI: 11.3 µM
OVCAR-4 ovarian
  GI50: 15.6 µM
  TGI: > 100 µM
HCT-116 colon
  GI50: 7.35 µM
  TGI: > 100 µM
SN12C renal
  GI50: 79.4 µM
  TGI: > 100 µM
DU-145 prostate
  GI50: > 100 µM
  TGI: > 100 µM
EKVX NSCLC
  GI50: 5.76 µM
  TGI: > 100 µM

— PubChem BioAssay (NCI)
